Measured values from patent publication US20260027380A1, “TECHNIQUES FOR MAGNETIC NANOCLUSTER-BASED COMBINATION THERAPY” (William Marsh Rice University, priority 2022, published 2026).

Legend:
Assay type in all cases: cell-based, murine
[1] = test system: MC-38 cells; test: Detection of intracellular free radicals (H2DCFDA); details: without AMF
Experimental: Additionally, intracellular free radical generation by IONC-AAPH was measured using 2′,7′-dichlorodihydrofluorescein diacetate (H2DCFDA) as an intracellular free radical probe. H2DCFDA is a non-fluorescent cell-permeant compound. Upon oxidation by free radicals, H2DCFDA is converted to a highly fluorescent 2′,7′-dichlorofluorescein (DCF). MC-38 cells (murine colon adenocarcinoma cell line) were pre-incubated with IONC or IONC-AAPH (at 300 μg Fe/mL concentration) for 1 h to allow internalization into cells. The intracellular IONC and IONC-AAPH were 0.79±0.16 and 0.87±0.12 pg Fe/cell, respectively, as quantified by a ferrozine-based colorimetric assay. After internalization, the cells were exposed to AMF for 1 h. The intracellular free radicals in the MC-38 cells were then examined with H2DCFDA through fluorescence microscopy and flow cytometry. FIG. 4 illustrates a flow cytometry analysis of intracellular free radicals in MC-38 cells detected via fluorescence from DCF. Further, FIG. 5 is a graph illustrating the quantification of intracellular free radicals (e.g., quantification of the mean fluorescence of DCF). The data in FIG. 5 represents the mean DCF fluorescence of each group +the standard error of mean (s.e.m.).
Detection of intracellular free radicals: The intracellular generation of free radicals was determined using H2DCFDA probe. […]

[2] = test system: MC-38 cells; test: Detection of DNA damage (γ-H2AX staining); details: without AMF
Experimental: Hyperthermia treatment may induce lipid peroxidation, DNA damage, protein denaturation, and cell organelle disruption. In addition, carbon-centered free radicals generated from AAPH are highly reactive and can damage lipid, DNA, protein, and other biomolecules, leading to cell death. Thus, to understand the cell-killing mechanisms of IONC-AAPH under AMF, the effects of IONC-AAPH on various cellular components, including DNA, F-actin, mitochondria, gluthathione (GSH), and lipids, were evaluated. γ-H2AX is a sensitive marker of DNA damage and has been extensively used in research and clinical studies. It forms foci around the site of DNA double-strand break (DSB).
FIG. 7 depicts the quantification of γ-H2AX expression based on fluorescence intensity.
Detection of DNA damage: The DNA damage induced by IONC-AAPH treatment was detected by γ-H2AX staining. MC-38 cells were seeded in 4-compartment cell culture dishes and cultured overnight. Then the cells were treated with 300 μg Fe/mL of IONC-AAPH or IONC at 37° C. or under AMF for 90 min. Four hours after the treatment, the cells were fixed with 4% paraformaldehyde for 20 min, permeabilized with 0.2% Triton X-100 for 20 min and blocked with 3% bovine serum albumin (BSA) for 30 min at room temperature. […] The cells were imaged with a Nikon A1-Rsi confocal microscope and the fluorescence intensity of γ-H2AX was analyzed with ImageJ software.

[3] = test system: MC-38 cells; test: Quantification of intracellular GSH (GSH-Glo); details: without AMF, 37° C. for 4 h
Experimental: Glutathione (GSH) is an antioxidant that plays an important role in the scavenging of intracellular free radicals and protecting the cells against oxidative damage. GSH depletion will disrupt the redox homeostasis and lead to oxidative stress and eventual cell death. MC-38 cells were treated with 300 μg Fe/mL of IONC or IONC-AAPH and subjected to AMF for 2 hours. The intracellular GSH was quantified after 2 hours of incubation at 37° C. Intracellular GSH was also measured for cells treated with AAPH, IONC, or IONC-AAPH, respectively, without AMF and incubated at 37° C. for 4 h. The intracellular GSH was quantified using a luminescence-based GSH-Glo glutathione assay. FIG. 11 illustrates a GSH depletion measurement of the MC-38 cells 2 hours after treatment. […] In contrast, treating cells with IONC-AAPH under AMF (i.e., with both heating and free radicals) decreased the GSH/GSSG ratio to 55% of that in the control cells.
Quantification of intracellular GSH: MC-38 cells were seeded in 4-compartment cell culture dishes at a density of 1×10^5 cells per compartment and cultured overnight. Then the cells were treated with 300 μg Fe/mL of IONC-AAPH or IONC at 37° C. or under AMF for 2 h. Two hours after the treatment, the culture medium was removed and the intracellular GSH was quantified using a luminescence-based GSH-Glo Glutathione Assay according to the manufacturer's instructions.

[4] = test system: MC-38 cells; test: Evaluation of F-actin morphology (phalloidin staining); details: without heating (no AMF)
From the text: To examine the effect of heating and free radicals on the actin cytoskeleton, actin filaments (F-actin) were stained with fluorescent phalloidin. […] In cells subjected to heating and free radicals but still showing phalloidin staining, the actin filaments were further retracted and more condensed compared with cells under heating only. FIG. 8 illustrates a quantification of MC-38 cells with F-actin structure in the above-described morphological analysis. […] In the cells with phalloidin staining, the actin filaments were further retracted and more condensed compared with the hyperthermia only group.
Evaluation of F-actin morphology: The F-actin morphology of MC-38 cells was evaluated by phalloidin staining. MC-38 cells were seeded in 4-compartment cell culture dishes and cultured overnight. The cells were then treated with 300 μg Fe/mL of IONC-AAPH or IONC at 37° C. or under AMF for 90 min. Four hours after the treatment, the cells were fixed, permeabilized, and blocked as described above. Then the cells were incubated with Alexa Fluor 568-labeled phalloidin for 30 min at room temperature, followed by staining with Hoechst 33342 for 10 min at room temperature. Images were collected using a Nikon Al-Rsi confocal microscope.

CC(C)(N=NC(C)(C)C(=N)N)C(=N)N.Cl.Cl [AAPH, 2,2′-azobis(2-amidinopropane) dihydrochloride]
intracellular free radicals (DCF fluorescence) [1]: negligible fluorescence | γ-H2AX foci (DNA damage) [2]: low numbers of γ-H2AX foci | change in GSH to GSSG ratio [3]: did not affect the GSH to GSSG ratio | F-actin morphology [4]: well organized and elongated
